Molecular target: DDR1 (Homo sapiens (Human), UniProt Q08345)
Experiment: Measurement of DDR1 enzyme inhibitory activity (phosphorylation of biotinylated peptide, time-resolved fluorescence)
Format: biochemical
Settings: human DDR1 enzyme, biotinylated peptide phosphorylation; read-out: DDR1 enzyme inhibition assay IC50
Method in brief: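 Baculovirus-expressed human DDR1 phosphorylated a biotinylated peptide, and inhibition of that phosphorylation was measured. Phosphopeptide was detected by time-resolved fluorescence using europium cryptate–labelled anti-phosphotyrosine antibody with streptavidin-XL665.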

Sequence of DDR1 (Q08345 19-913): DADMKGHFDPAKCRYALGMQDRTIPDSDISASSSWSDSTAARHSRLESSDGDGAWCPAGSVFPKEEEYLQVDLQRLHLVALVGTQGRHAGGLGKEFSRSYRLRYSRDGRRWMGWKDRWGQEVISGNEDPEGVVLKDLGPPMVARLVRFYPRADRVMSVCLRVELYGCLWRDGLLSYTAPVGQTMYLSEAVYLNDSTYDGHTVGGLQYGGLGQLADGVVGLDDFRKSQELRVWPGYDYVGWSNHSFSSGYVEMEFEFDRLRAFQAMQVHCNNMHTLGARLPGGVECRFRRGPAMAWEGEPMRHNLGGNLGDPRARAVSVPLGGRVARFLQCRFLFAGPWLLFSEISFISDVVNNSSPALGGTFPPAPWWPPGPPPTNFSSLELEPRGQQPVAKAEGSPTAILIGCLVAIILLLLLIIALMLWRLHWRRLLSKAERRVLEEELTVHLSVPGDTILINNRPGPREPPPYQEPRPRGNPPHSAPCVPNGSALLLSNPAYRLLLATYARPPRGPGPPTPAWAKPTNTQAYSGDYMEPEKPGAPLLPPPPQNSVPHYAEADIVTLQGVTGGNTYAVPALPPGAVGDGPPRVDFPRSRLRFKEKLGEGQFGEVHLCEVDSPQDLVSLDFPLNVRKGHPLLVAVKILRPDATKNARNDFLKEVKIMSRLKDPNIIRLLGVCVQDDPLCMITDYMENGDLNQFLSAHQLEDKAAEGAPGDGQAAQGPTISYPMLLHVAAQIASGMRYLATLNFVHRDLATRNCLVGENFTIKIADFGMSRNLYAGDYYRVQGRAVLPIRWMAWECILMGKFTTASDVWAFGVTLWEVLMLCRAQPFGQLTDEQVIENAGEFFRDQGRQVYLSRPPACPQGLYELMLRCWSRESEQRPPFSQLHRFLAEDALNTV

Structure (SMILES) | IC50 [nM]
CCSc1ccc(C#N)cc1Nn1cnc2cc(Br)c(OC(F)(F)F)cc2c1=O [Compound C-17, 3-[[7-Bromo-4-oxo-6-(trifluoromethoxy)quinazolin-3-yl]amino]-4-ethylsulfanylbenzonitrile] | 230
CCS(=O)(=O)c1ccc(C#N)cc1Nn1cnc2cc(Br)c(OC(F)(F)F)cc2c1=O [Compound C-18, 3-[[7-bromo-4-oxo-6-(trifluoromethoxy)quinazolin-3-yl]amino]-4-ethylsulfonylbenzonitrile] | 430
CCSc1ccc(F)cc1Nn1cnc2c(Br)cc(OC(F)(F)F)cc2c1=O [Compound C-19, 8-Bromo-3-(2-ethylsulfanyl-5-fluoroanilino)-6-(trifluoromethoxy)quinazolin-4-one] | 340
CCS(=O)(=O)c1ccc(F)cc1Nn1cnc2c(Br)cc(OC(F)(F)F)cc2c1=O [Compound C-20, 8-Bromo-3-(2-ethylsulfonyl-5-fluoroanilino)-6-(trifluoromethoxy)quinazolin-4-one] | 150
CCSc1ccc(F)cc1Nn1cnc2c(Br)cc(C(F)(F)F)cc2c1=O [Compound C-21] | 600
CCS(=O)(=O)c1ccc(F)cc1Nn1cnc2c(Br)cc(C(F)(F)F)cc2c1=O [Compound C-22, 8-Bromo-3-(2-ethylsulfonyl-5-fluoroanilino)-6-(trifluoromethyl)quinazolin-4-one] | 300
CCSc1ccc(Br)cc1Nn1cnc2c(Br)cc(OC(F)(F)F)cc2c1=O [Compound C-23, 8-Bromo-3-(5-bromo-2-ethylsulfanylanilino)-6-(trifluoromethoxy)quinazolin-4-one] | 400
CCS(=O)(=O)c1ccc(Br)cc1Nn1cnc2c(Br)cc(OC(F)(F)F)cc2c1=O [Compound C-24, 8-Bromo-3-(5-bromo-2-ethylsulfonylanilino)-6-(trifluoromethoxy)quinazolin-4-one] | 280
CCSc1ccc(Br)cc1Nn1cnc2c(Br)cc(C(F)(F)F)cc2c1=O [Compound C-25, 8-Bromo-3-(5-bromo-2-ethylsulfanylanilino)-6-(trifluoromethyl)quinazolin-4-one] | 180
CCS(=O)(=O)c1ccc(Br)cc1Nn1cnc2c(Br)cc(C(F)(F)F)cc2c1=O [Compound C-26, 8-Bromo-3-(5-bromo-2-ethylsulfonylanilino)-6-(trifluoromethyl)quinazolin-4-one] | 150
CCSc1ccc(OC)cc1Nn1cnc2ccc(OC(F)(F)F)cc2c1=O [Compound C-27, 3-(2-Ethylsulfanyl-5-methoxyanilino)-6-(trifluoromethoxy)quinazolin-4-one] | 200
CCS(=O)(=O)c1ccc(OC)cc1Nn1cnc2ccc(OC(F)(F)F)cc2c1=O [Compound C-28, 3-(2-Ethylsulfonyl-5-methoxyanilino)-6-(trifluoromethoxy)quinazolin-4-one] | 290
CCSc1ccc(OC)cc1Nn1cnc2c(Br)cc(C(F)(F)F)cc2c1=O [Compound C-29, 8-Bromo-3-(2-ethylsulfanyl-5-methoxyanilino)-6-(trifluoromethyl)quinazolin-4-one] | 160
CCS(=O)(=O)c1ccc(OC)cc1Nn1cnc2c(Br)cc(C(F)(F)F)cc2c1=O [Compound C-30, 8-Bromo-3-(2-ethylsulfonyl-5-methoxyanilino)-6-(trifluoromethyl)quinazolin-4-one] | 150
CCOc1ccc(SCC)c(Nn2cnc3c(Br)cc(C(F)(F)F)cc3c2=O)c1 [Compound C-31, 8-Bromo-3-(5-ethoxy-2-ethylsulfanylanilino)-6-(trifluoromethyl)quinazolin-4-one] | 330
CCOc1ccc(S(=O)(=O)CC)c(Nn2cnc3c(Br)cc(C(F)(F)F)cc3c2=O)c1 [Compound C-32, 8-Bromo-3-(5-ethoxy-2-ethylsulfonylanilino)-6-(trifluoromethyl)quinazolin-4-one] | 1970
CCSc1ccc(C(F)(F)F)cc1Nn1cnc2c(Br)cc(C(F)(F)F)cc2c1=O [Compound C-34, 8-Bromo-3-[2-ethylsulfanyl-5-(trifluoromethyl)anilino]-6-(trifluoromethyl)quinazolin-4-one] | 170
CCS(=O)(=O)c1ccc(C(F)(F)F)cc1Nn1cnc2c(Br)cc(C(F)(F)F)cc2c1=O [Compound C-35, 8-Bromo-3-[2-ethylsulfonyl-5-(trifluoromethyl)anilino]-6-(trifluoromethyl)quinazolin-4-one] | 210
C#Cc1ccc(SCC)c(Nn2cnc3c(Br)cc(C(F)(F)F)cc3c2=O)c1 [Compound C-36, 8-Bromo-3-(2-ethylsulfanyl-5-ethynylanilino)-6-(trifluoromethyl)quinazolin-4-one] | 280
C#Cc1ccc(S(=O)(=O)CC)c(Nn2cnc3c(Br)cc(C(F)(F)F)cc3c2=O)c1 [Compound C-37, 8-Bromo-3-(2-ethylsulfonyl-5-ethynylanilino)-6-(trifluoromethyl)quinazolin-4-one] | 240
CCSc1c(Cl)cc(Cl)cc1Nn1cnc2ccc(C(F)(F)F)cc2c1=O [Compound C-38, 3-(3,5-Dichloro-2-ethylsulfanylanilino)-6-(trifluoromethyl)quinazolin-4-one] | 280
CCS(=O)(=O)c1c(Cl)cc(Cl)cc1Nn1cnc2ccc(C(F)(F)F)cc2c1=O [Compound C-39, 3-(3,5-Dichloro-2-ethylsulfonylanilino)-6-(trifluoromethyl)quinazolin-4-one] | 140
CCSc1cc(Cl)c(Cl)cc1Nn1cnc2ccc(C(F)(F)F)cc2c1=O [Compound C-40, 3-(4,5-Dichloro-2-ethylsulfanylanilino)-6-(trifluoromethyl)quinazolin-4-one] | 190
CCS(=O)(=O)c1cc(Cl)c(Cl)cc1Nn1cnc2ccc(C(F)(F)F)cc2c1=O [Compound C-41, 3-(4,5-Dichloro-2-ethylsulfonylanilino)-6-(trifluoromethyl)quinazolin-4-one] | 110
CCSc1cc(Cl)c(C#N)cc1Nn1cnc2ccc(C(F)(F)F)cc2c1=O [Compound C-42, 2-Chloro-4-ethylsulfanyl-5-[[4-oxo-6-(trifluoromethyl)quinazolin-3-yl]amino]benzonitrile] | 450
CCS(=O)(=O)c1cc(Cl)c(C#N)cc1Nn1cnc2ccc(C(F)(F)F)cc2c1=O [Compound C-43, 2-Chloro-4-ethylsulfonyl-5-[[4-oxo-6-(trifluoromethyl)quinazolin-3-yl]amino]benzonitrile] | 330
CCSc1ncc(Cl)cc1Nn1cnc2c(Br)cccc2c1=O [Compound D-1, 8-Bromo-3-[(5-chloro-3-ethylsulfanylpyridin-3-yl)amino]quinazolin-4-one] | 2360
CCSc1ncc(Cl)cc1Nn1cnc2ccc(C(F)(F)F)cc2c1=O [Compound D-2, 3-[(5-Chloro-2-ethylsulfanylpyridin-3-yl)amino]-6-(trifluoromethyl)quinazolin-4-one] | 410
CCS(=O)(=O)c1ncc(Cl)cc1Nn1cnc2ccc(C(F)(F)F)cc2c1=O [Compound D-3, 3-[(5-Chloro-2-ethylsulfonylpyridin-3-yl)amino]-6-(trifluoromethyl)quinazolin-4-one] | 430
CCSc1ncc(Cl)cc1Nn1cnc2c(Br)cc(C)cc2c1=O [Compound D-4, 8-Bromo-3-[(5-chloro-2-ethylsulfanylpyridin-3-yl)amino]-6-methylquinazolin-4-one] | 580

— patent US10005739B2, “Quinazolinone and isoquinolinone derivative” (CHUGAI SEIYAKU KABUSHIKI KAISHA, priority 2013, dated 2018)
